For 26 molecules, Ki results are on record in US8580842B2, “Heteroaryl-substituted 1,3-dihydroindol-2-one derivatives and medicaments containing them” (Abbott GmbH & Co. KG, priority 2003, dated 2013).

Counter-ions that a name gives are not always drawn.

This test deals with T1, human V1b receptors (Homo sapiens, UniProt P47901).
T1 construct: expressed in transfected cells; host or cells: CHO-K1 (membrane preparation V1b-3H2)
T1 sequence (P47901 1-424): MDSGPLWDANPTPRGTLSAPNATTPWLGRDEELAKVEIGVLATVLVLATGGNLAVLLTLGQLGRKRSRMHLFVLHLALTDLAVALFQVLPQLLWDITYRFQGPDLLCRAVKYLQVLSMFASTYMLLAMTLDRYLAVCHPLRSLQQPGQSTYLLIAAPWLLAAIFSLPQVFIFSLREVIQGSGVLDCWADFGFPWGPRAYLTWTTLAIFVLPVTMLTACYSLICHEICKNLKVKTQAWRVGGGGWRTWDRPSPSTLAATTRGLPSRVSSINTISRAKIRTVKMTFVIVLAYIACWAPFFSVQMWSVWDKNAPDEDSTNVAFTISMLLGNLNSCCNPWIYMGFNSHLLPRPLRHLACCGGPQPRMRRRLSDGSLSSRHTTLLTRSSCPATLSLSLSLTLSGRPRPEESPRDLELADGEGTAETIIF
Kind of test: Vasopressin V1b receptor binding assay. To be noted: membranes from CHO-K1 cells expressing human V1b receptors, displacement of 1.5 nM 3H-AVP; read-out: Binding affinity for the vasopressin V1b receptor. As to the method: Vasopressin V1b Receptor Binding Assay
The binding of the compounds of this invention to the vasopressin V1b receptor was determined with the following assay:
Compounds were dissolved in a concentration of 10^−2 M or 10^−3 M in DMSO. Further dilutions were performed with water.
The procedure for the binding assay was based on the method of Tahara et al. (Tahara A et al., Brit. J. Pharmacol. 125, 1463-1470 (1998)). Assays (0.250 ml) consisted of membranes (58 μg protein) from CHO-K1 cells permanently expressing human V1b receptors (preparation V1b-3H2, containing protease inhibitors, Roche complete Mini #1836170), 1.5 nM ^3H-AVP (8-Arg-vasopressin, NET 800) in incubation buffer (total binding) and different concentrations of test compound (displacement). Non-specific binding was defined with 10^−6 M AVP. Assays were performed in triplicate.
Incubation buffer: 50 mM Tris, 10 mM MgCl2, 0.1% BSA adjusted to pH 7.4 with HCl.
After incubation, 60 min at room temperature, bound and free radioligand was separated by filtration under vacuum through Whatman GF/B glass fibre mats using a Skatron cell harvester 7000.
Liquid scintillation counting was performed in beta-counters, Tricarb model 2000 or 2200CA (Packard). Dpm were calculated by a programme with standardisation using a standard quench series.
Evaluation of binding parameters was performed by non-linear regression analysis with SAS. The strategy of this program is similar to the program LIGAND described by Munson and Rodbard (Munson PJ and Rodbard D, Analytical Biochem 107, 220-239 (1980)).
On to `COc1ncccc1C1(OC(=O)N2CCN(C3CCN(C)CC3)CC2)C(=O)N(S(=O)(=O)c2ccc(OC(F)(F)F)cc2)c2ccc(Cl)cc21` (centres unmarked) [Example 123, 4-(1-Methyl-piperidin-4-yl)-piperazine-1-carboxylic acid 5-chloro-3-(2-methoxy-pyridin-3-yl)-2-oxo-1-(4-trifluoromethoxy-benzenesulfonyl)-2,3-dihydro-1H-indol-3-yl ester diacetate], for which the Ki lay in the range of 50 to 500 nM.
The value for `COc1ccccc1S(=O)(=O)N1C(=O)C(c2cccnc2OC)(N2C[C@H](O)C[C@H]2C(=O)N(C)C)c2cc(Cl)ccc21` (single isomer, unassigned) [Example 241] was 50 to 500 nM; that for `COc1ccc(S(=O)(=O)N2C(=O)C(c3cccnc3OC)(N(C)[C@@H](C)C(=O)N(C)C)c3cc(Cl)ccc32)c(OC)c1` (some centres unmarked) [Example 220] was under 50 nM; that for `COc1ncccc1C1(OC(=O)N2CCN(C3CCN(C)CC3)CC2)C(=O)N(S(=O)(=O)c2ccc(C)s2)c2ccc(Cl)cc21` (centres unmarked) [Example 168, 4-(1-Methyl-piperidin-4-yl)-piperazine-1-carboxylic acid 5-chloro-3-(2-methoxy-pyridin-3-yl)-1-(5-methyl-thiophene-2-sulfonyl)-2-oxo-2,3-dihydro-1H-indol-3-yl ester diacetate] was under 50 nM.
The value for `COc1ncccc1C1(OC(=O)N2CCN(C3CCN(C)CC3)CC2)C(=O)N(S(=O)(=O)c2ccc(C(F)(F)F)cc2)c2ccc(Cl)cc21` (centres unmarked) [Example 122, 4-(1-Methyl-piperidin-4-yl)-piperazine-1-carboxylic acid 5-chloro-3-(2-methoxy-pyridin-3-yl)-2-oxo-1-(4-trifluoromethyl-benzenesulfonyl)-2,3-dihydro-1H-indol-3-yl ester diacetate] was 50 to 500 nM; that for `COc1ncccc1C1(OC(=O)N2CCN(C3CCN(C)CC3)CC2)C(=O)N(S(=O)(=O)c2ccc(C#N)cc2)c2ccc(Cl)cc21` (centres unmarked) [Example 113, 4-(1-Methyl-piperidin-4-yl)-piperazine-1-carboxylic acid 5-chloro-1-(4-cyano-benzenesulfonyl)-3-(2-methoxy-pyridin-3-yl)-2-oxo-2,3-dihydro-1H-indol-3-yl ester diacetate] was under 50 nM.
For “(2S,4R)-1-[5-Chloro-3-(2,4-dimethoxy-pyrimidin-5-yl)-1-(5-methyl-pyridine-2-sulfonyl)-2-oxo-2,3-dihydro-1H-indol-3-yl]-4-hydroxy-pyrrolidine-2-carboxylic acid dimethylamide [Example 289]” the value was under 50 nM; for `COc1ccc(S(=O)(=O)N2C(=O)C(c3cccnc3OC)(N3CCC[C@H]3C(=O)N(C)C)c3ccccc32)c(OC)c1` (single isomer, unassigned) [Example 226], 50 to 500 nM.
Regarding `COc1ncccc1C1(N2C[C@H](O)C[C@H]2C(=O)N(C)C)C(=O)N(S(=O)(=O)c2cccc3cccnc23)c2ccc(Cl)cc21` (single isomer, unassigned) [Example 288], the Ki is under 50 nM.
`COc1ccccc1C1(N2C[C@H](O)C[C@H]2C(=O)N(C)C)C(=O)N(S(=O)(=O)c2ccccn2)c2ccc(Cl)cc21` (single isomer, unassigned) [Example 47]: the Ki was under 50 nM.
On to `COC(=O)[C@@H]1CCCN1C1(c2cccnc2OC)C(=O)N(S(=O)(=O)c2ccc(OC)cc2OC)c2ccc(Cl)cc21` (mixture of isomers) [Example 248, (S)-1-[5-Chloro-1-(2,4-dimethoxy-benzenesulfonyl)-3-(2-methoxy-pyridin-3-yl)-2-oxo-2,3-dihydro-1H-indol-3-yl]-pyrrolidine-2-carboxylic acid methyl ester], for which the Ki is under 50 nM.
For `COc1ccc(S(=O)(=O)N2C(=O)C(c3cnc(OC)nc3OC)(N3C[C@H](O)C[C@H]3C(=O)N(C)C)c3cc(Cl)ccc32)c(OC)c1` (single isomer, unassigned) [Example 3], the Ki was under 50 nM.
Take `COc1ccc(S(=O)(=O)N2C(=O)C(c3ccc(OC)nc3OC)(N3C[C@H](O)C[C@H]3C(=O)N(C)C)c3cc(Cl)ccc32)c(OC)c1` (single isomer, unassigned) [Example 238]: the Ki was under 50 nM.
Regarding `COc1ccc(S(=O)(=O)N2C(=O)C(OC(=O)N3CCC(N4CCN(C)CC4)CC3)(c3cccnc3OC)c3cc(C)ccc32)c(OC)c1` (centres unmarked) [Example 107, 4-(4-Methyl-piperazin-1-yl)-piperidine-1-carboxylic acid 1-(2,4-dimethoxy-benzenesulfonyl)-3-(2-methoxy-pyridin-3-yl)-5-methyl-2-oxo-2,3-dihydro-1H-indol-3-yl ester], the Ki is under 50 nM.
Regarding `Cc1ccccc1C1(OC(=O)N2CCN(C3CCN(C)CC3)CC2)C(=O)N(S(=O)(=O)c2ccccn2)c2ccc(C#N)cc21` (centres unmarked) [Example 134, 4-(1-Methyl-piperidin-4-yl)-piperazine-1-carboxylic acid 5-cyano-2-oxo-1-(pyridine-2-sulfonyl)-3-o-tolyl-2,3-dihydro-1H-indol-3-yl ester dihydrochloride], the Ki is under 50 nM.
The value for `CCOc1ccccc1C1(OC(=O)N2CCN(C3CCN(C)CC3)CC2)C(=O)N(S(=O)(=O)c2sccc2OC)c2ccc(Cl)cc21` (centres unmarked) [Example 143, 4-(1-Methyl-piperidin-4-yl)-piperazine-1-carboxylic acid 5-chloro-3-(2-ethoxy-phenyl)-1-(3-methoxy-thiophene-2-sulfonyl)-2-oxo-2,3-dihydro-1H-indol-3-yl ester] was under 50 nM; that for `COc1ncc(C2(N3C[C@H](O)C[C@H]3C(=O)N(C)C)C(=O)N(S(=O)(=O)c3ccc(C)cn3)c3ccc(Cl)cc32)c(OC)n1` (single isomer, unassigned) [Example 282] was under 50 nM; that for `COc1ccccc1C1(N2C[C@H](O)C[C@H]2C(=O)N(C)C)C(=O)N(S(=O)(=O)c2ccc(Cl)s2)c2ccc(Cl)cc21` (single isomer, unassigned) [Example 31] was under 50 nM.
The value for `COc1ccccc1C1(OC(=O)N2CCN(C3CCN(C)CC3)CC2)C(=O)N(S(=O)(=O)c2ccccn2)c2ccc(C)cc21` (centres unmarked) [Example 127, 4-(1-Methyl-piperidin-4-yl)-piperazine-1-carboxylic acid 3-(2-methoxy-phenyl)-5-methyl-2-oxo-1-(pyridine-2-sulfonyl)-2,3-dihydro-1H-indol-3-yl ester dihydrochloride] was under 50 nM; that for `COc1ccc2c(c1)C(OC(=O)N1CCN(C3CCN(C)CC3)CC1)(c1ccccc1OC)C(=O)N2S(=O)(=O)c1cccs1` (centres unmarked) [Example 126, 4-(1-Methyl-piperidin-4-yl)-piperazine-1-carboxylic acid 5-methoxy-3-(2-methoxy-phenyl)-2-oxo-1-(thiophene-2-sulfonyl)-2,3-dihydro-1H-indol-3-yl ester dihydrochloride] was under 50 nM.
The value for `COc1ccccc1C1(N2C[C@H](O)C[C@H]2C(=O)N(C)C)C(=O)N(S(=O)(=O)c2ccc(C)cn2)c2ccc(Cl)cc21` (single isomer, unassigned) [Example 51] was under 50 nM; that for `COc1ccc(S(=O)(=O)N2C(=O)C(c3nc4ccccc4s3)(N3C[C@H](O)C[C@H]3C(=O)N(C)C)c3cc(Cl)ccc32)c(OC)c1` (single isomer, unassigned) [Example 2] was under 50 nM; that for `CCOc1ccccc1C1(NC(=O)N2CCN(C3CCN(C)CC3)CC2)C(=O)N(S(=O)(=O)c2cccc3cccnc23)c2ccc(OC)cc21` (centres unmarked) [Example 83, 4-(1-Methyl-piperidin-4-yl)-piperazine-1-carboxylic acid [3-(2-ethoxy-phenyl)-5-methoxy-2-oxo-1-(quinoline-8-sulfonyl)-2,3-dihydro-1H-indol-3-yl]-amide] was under 50 nM.
`COc1ccc(S(=O)(=O)N2C(=O)C(c3cnccc3OC)(N3C[C@H](O)C[C@H]3C(=O)N(C)C)c3cc(Cl)ccc32)c(OC)c1` (single isomer, unassigned) [Example 10]: the Ki is under 50 nM.
On to `COc1ccc(S(=O)(=O)N2C(=O)C(c3cccnc3OC)(N3C[C@H](O)C[C@H]3C(=O)N(C)C)c3cc(C#N)ccc32)cc1` (single isomer, unassigned) [Example 242], for which the Ki was under 50 nM.
For the molecule `COc1ccc(S(=O)(=O)N2C(=O)C(c3cccnc3OC)(N3CCC[C@H]3C(=O)N(C)C)c3cc(Cl)ccc32)c(OC)c1` (single isomer, unassigned) [Example 227], the Ki is under 50 nM.
